Results on 12 compounds are retold here after publication PMC11292843 (ACS Omega, 2024).

SMILES strings stand for the structures.

The target in assay [1] is T1, hPTP1B1–400 (Homo sapiens, UniProt P18031).
T1 sequence (P18031 1-400): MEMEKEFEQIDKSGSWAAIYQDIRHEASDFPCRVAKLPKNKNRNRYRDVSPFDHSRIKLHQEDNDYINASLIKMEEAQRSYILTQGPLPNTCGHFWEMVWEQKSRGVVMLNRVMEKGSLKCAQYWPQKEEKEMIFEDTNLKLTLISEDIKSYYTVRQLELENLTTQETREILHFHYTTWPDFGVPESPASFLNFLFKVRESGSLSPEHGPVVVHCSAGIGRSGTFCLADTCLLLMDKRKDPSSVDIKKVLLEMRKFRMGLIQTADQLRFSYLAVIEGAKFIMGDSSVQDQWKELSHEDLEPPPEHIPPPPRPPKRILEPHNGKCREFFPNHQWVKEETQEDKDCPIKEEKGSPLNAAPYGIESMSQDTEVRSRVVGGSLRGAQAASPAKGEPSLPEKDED
Description: PTP1B inhibition assay (pNPP, spectrocolorimetric), long form. Conditions: IC50 ± SD hPTP1B1–400, hPTP1B 66 nM, pNPP 0.5 mM, 37 °C, 15 min.

For assay [2], the target named is T1, hPTP1B1–400. Description: Enzyme kinetics (Lineweaver–Burk, varying pNPP). To be noted: for inhibition mechanism: hPTP1B1–400, best fit of inhibition models; for Km / Vmax: hPTP1B1–400, pNPP 0.1–0.5 mM.
The target in a further assay is T2, hPTP1B1–285 (Homo sapiens, UniProt P18031).
T2 sequence (P18031 1-285): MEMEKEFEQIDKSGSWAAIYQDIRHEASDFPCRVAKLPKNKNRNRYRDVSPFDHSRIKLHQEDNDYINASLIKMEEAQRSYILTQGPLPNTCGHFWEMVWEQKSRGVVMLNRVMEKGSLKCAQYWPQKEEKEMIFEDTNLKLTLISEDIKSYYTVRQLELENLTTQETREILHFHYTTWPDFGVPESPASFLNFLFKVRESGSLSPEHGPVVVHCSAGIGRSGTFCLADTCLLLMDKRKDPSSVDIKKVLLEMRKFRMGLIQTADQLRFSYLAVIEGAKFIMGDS
Kind of assay: PTP1B inhibition assay (pNPP, spectrocolorimetric), short form.

The term IC50 denotes the concentration needed to halve the response being measured. Broadly, the Ki is the dissociation constant of the complex between target and ligand, obtained from inhibition or displacement. Higher therefore signals weaker binding. The term Km denotes the substrate concentration at which the rate is half of its maximum. The Vmax is the rate approached at saturating substrate.

Turning to `C[C@H](CCC(=O)O)C1CCC2C3CC[C@@H]4C[C@](O)(CNCc5ccccc5)CC[C@]4(C)C3CC[C@@]21C` (stereo partly drawn) [compound 6a, N-Benzyl-1-((3S,5R,10S,13R)-17-((R)-4-carboxybutan-2-yl)-3-hydroxy-10,13-dimethylhexadecahydro-1H-cyclopenta[a]phenanthren-3-yl)methanaminium Chloride], half-maximal inhibition on hPTP1B1–400 [1] (IC50) required 33.1 ± 2.7 µM.
Same read-out and setting: in the case of `C[C@H](CCC(=O)O)C1CCC2C3CC[C@@H]4C[C@](O)(CNCc5ccc(O)cc5)CC[C@]4(C)C3CC[C@@]21C` (stereo partly drawn) [compound 6b, 1-((3S,5R,10S,13R)-17-((R)-4-carboxybutan-2-yl)-3-hydroxy-10,13-dimethylhexadecahydro-1H-cyclopenta[a]phenanthren-3-yl)-N-(4-hydroxybenzyl)methanaminium Chloride] it was 26.9 ± 3.5 µM.
As for `COc1cccc(CNC[C@]2(O)CC[C@]3(C)C4CC[C@@]5(C)C(CCC5[C@H](C)CCC(=O)O)C4CC[C@@H]3C2)c1.Cl` (stereo partly drawn) [compound 6c, 1-((3S,5R,10S,13R)-17-((R)-4-carboxybutan-2-yl)-3-hydroxy-10,13-dimethylhexadecahydro-1H-cyclopenta[a]phenanthren-3-yl)-N-(3-methoxybenzyl)methanaminium Chloride], at hPTP1B1–400 [2], the Ki was found to be 4 ± 0.2 µM, the inhibition mechanism result is on record as “Uncompetitive”, the Km stood at 380 ± 20 µM and the Vmax was determined as 0.64 ± 0.02 mM/min. Also, the IC50 at hPTP1B1–400 [1] was determined as 10.5 ± 0.2 µM.
Consider `COc1ccc(CNC[C@]2(O)CC[C@]3(C)C4CC[C@@]5(C)C(CCC5[C@H](C)CCC(=O)O)C4CC[C@@H]3C2)cc1.Cl` (stereo partly drawn) [compound 6d, 1-((3S,5R,10S,13R)-17-((R)-4-carboxybutan-2-yl)-3-hydroxy-10,13-dimethylhexadecahydro-1H-cyclopenta[a]phenanthren-3-yl)-N-(4-methoxybenzyl)methanaminium Chloride], for which, at hPTP1B1–400 [2], the Ki was 19.7 ± 2.6 µM, the inhibition mechanism result was “Uncompetitive”, the Km came out at 780 ± 90 µM and the Vmax is recorded as 1.10 ± 0.09 mM/min. This compound also registered a 50% inhibitory concentration (IC50) against hPTP1B1–400 [1] of 26.6 ± 0.9 µM.
Turning to `Cc1cccc(CNC[C@]2(O)CC[C@]3(C)C4CC[C@@]5(C)C(CCC5[C@H](C)CCC(=O)O)C4CC[C@@H]3C2)c1` (stereo partly drawn) [compound 6e, 1-((3S,5R,10S,13R)-17-((R)-4-carboxybutan-2-yl)-3-hydroxy-10,13-dimethylhexadecahydro-1H-cyclopenta[a]phenanthren-3-yl)-N-(3-methylbenzyl)methanaminium Chloride], the IC50 on hPTP1B1–285 came out at 53.8 ± 2.7 µM; against hPTP1B1–400 [1] it was 16.3 ± 0.5 µM.
For `Cc1ccc(CNC[C@]2(O)CC[C@]3(C)C4CC[C@@]5(C)C(CCC5[C@H](C)CCC(=O)O)C4CC[C@@H]3C2)cc1` (stereo partly drawn) [compound 6f, 1-((3S,5R,10S,13R)-17-((R)-4-carboxybutan-2-yl)-3-hydroxy-10,13-dimethylhexadecahydro-1H-cyclopenta[a]phenanthren-3-yl)-N-(4-methylbenzyl)methanaminium Chloride], in that order: 46 ± 1.7 µM and 34.3 ± 0.5 µM.
For the compound `C[C@H](CCC(=O)O)C1CCC2C3CC[C@@H]4C[C@](O)(CNCc5cccc(F)c5)CC[C@]4(C)C3CC[C@@]21C` (stereo partly drawn) [compound 6g, 1-((3S,5R,10S,13R)-17-((R)-4-carboxybutan-2-yl)-3-hydroxy-10,13-dimethylhexadecahydro-1H-cyclopenta[a]phenanthren-3-yl)-N-(3-fluorobenzyl)methanaminium Chloride], the IC50 against hPTP1B1–400 [1] was greater than 100 µM.
The same measure, in the same setting: in the case of `C[C@H](CCC(=O)O)C1CCC2C3CC[C@@H]4C[C@](O)(CNCc5ccc(F)cc5)CC[C@]4(C)C3CC[C@@]21C` (stereo partly drawn) [compound 6h, 1-((3S,5R,10S,13R)-17-((R)-4-carboxybutan-2-yl)-3-hydroxy-10,13-dimethylhexadecahydro-1H-cyclopenta[a]phenanthren-3-yl)-N-(4-fluorobenzyl)methanaminium Chloride] it was greater than 100 µM; in that of `C[C@H](CCC(=O)O)C1CCC2C3CC[C@@H]4C[C@](O)(CNCc5cccc(Cl)c5)CC[C@]4(C)C3CC[C@@]21C` (stereo partly drawn) [compound 6i, 1-((3S,5R,10S,13R)-17-((R)-4-carboxybutan-2-yl)-3-hydroxy-10,13-dimethylhexadecahydro-1H-cyclopenta[a]phenanthren-3-yl)-N-(3-chlorobenzyl)methanaminium Chloride], greater than 100 µM; in that of `C[C@H](CCC(=O)O)C1CCC2C3CC[C@@H]4C[C@](O)(CNCc5ccc(Cl)cc5)CC[C@]4(C)C3CC[C@@]21C` (stereo partly drawn) [compound 6j, 1-((3S,5R,10S,13R)-17-((R)-4-carboxybutan-2-yl)-3-hydroxy-10,13-dimethylhexadecahydro-1H-cyclopenta[a]phenanthren-3-yl)-N-(4-chlorobenzyl)methanaminium Chloride], greater than 100 µM.
`C[C@H](CCC(=O)O)C1CCC2C3CC[C@@H]4C[C@](O)(CNCc5cccc(C(=O)O)c5)CC[C@]4(C)C3CC[C@@]21C.Cl` (stereo partly drawn) [compound 6k, N-(3-carboxybenzyl)-1-((3S,5R,10S,13R)-17-((R)-4-carboxybutan-2-yl)-3-hydroxy-10,13-dimethylhexadecahydro-1H-cyclopenta[a]phenanthren-3-Yl)methanaminium Chloride]: on hPTP1B1–400 [2], the Ki is 11 ± 1 µM, the inhibition mechanism entry was “Uncompetitive”, the Km is 480 ± 60 µM and the Vmax is given as 0.80 ± 0.06 mM/min. At hPTP1B1–400 [1], the IC50 came to 32.3 ± 1.2 µM.
For `C[C@H](CCC(=O)O)C1CCC2C3CC[C@@H]4C[C@](O)(CNCc5ccc(C(=O)O)cc5)CC[C@]4(C)C3CC[C@@]21C.Cl` (stereo partly drawn) [compound 6l, N-(4-carboxybenzyl)-1-((3S,5R,10S,13R)-17-((R)-4-carboxybutan-2-yl)-3-hydroxy-10,13-dimethylhexadecahydro-1H-cyclopenta[a]phenanthren-3-yl)methanaminium Chloride], in that order: 10.7 ± 1.6 µM, “Uncompetitive”, 950 ± 150 µM, 1.41 ± 0.17 mM/min and 12.6 ± 0.7 µM.
